Test results as given in patent US5217960A, “Erythromycin derivatives” (priority 1991, dated 1993).
In brackets after ≈: the same amount, converted by molar mass. Where two headings read alike, the source gives them in different places.

How the values were obtained:
Assay type in all cases: cell-based
[1] = test system: KLEBSIELLA PNEUMONIAE ATCC 8045; assay: In vitro antibacterial activity, agar dilution MIC; conditions: ATCC8045, K. pneumoniae ATCC 8045, BHI agar, 35-37° C., 20 to 24 hours, read-out: MIC
[2] = test system: PSEUDOMONAS AERUGINOSA K799/WT; assay: In vitro antibacterial activity, agar dilution MIC; conditions: P. aeruginosa K799/WT, BHI agar, 35-37° C., 20 to 24 hours
ESCHERICHIA COLI SS = assay: In vitro antibacterial activity, agar dilution MIC
ESCHERICHIA COLI JUHL = assay: microbe, parasite or virus in culture
[3] = test system: STAPHYLOCOCCUS EPIDERMIDIS 3519; assay: microbe, parasite or virus in culture
[4] = test system: STREPTOCOCCUS PYOGENES 930 CONST; assay: In vitro antibacterial activity, agar dilution MIC
[5] = test system: STAPHYLOCOCCUS AUREUS ATCC 6538P; assay: In vitro antibacterial activity, agar dilution MIC; conditions: ATCC6538P, 24 h
[6] = test system: ACINETOBACTER CALCOACETICUS CMX 669; assay: In vitro antibacterial activity, agar dilution MIC; conditions: A. calcoaceticus CMX 669, BHI agar, 35-37° C., 20 to 24 hours
[7] = test system: STAPHYLOCOCCUS AUREUS 642A; assay: In vitro antibacterial activity, agar dilution MIC; conditions: 24 h
[8] = test system: ENTEROBACTER AEROGENES ATCC 13048; assay: In vitro antibacterial activity, agar dilution MIC; conditions: Klebsiella aerogenes, ATCC13048; E. aerogenes ATCC 13048; BHI agar, 35-37° C., 20 to 24 hours; read-out: MIC
[9] = test system: PSEUDOMONAS AERUGINOSA A5007; assay: In vitro antibacterial activity, agar dilution MIC; conditions: P. aeruginosa A5007, BHI agar, 35-37° C., 20 to 24 hours
STR[…] 508 = assay: In vitro antibacterial activity, agar dilution MIC; conditions: Streptococcus agalactiae, 24 h
Experimental: (§1) Representative compounds of the present invention were assayed in vitro for antibacterial activity as follows: Twelve petri dishes containing successive aqueous dilutions of the test compound mixed with 10 ml of sterilized Brain Heart Infusion (BHI) agar (Difco 0418-01-5) were prepared. Each plate was inoculated with 1:100 (or 1:10 for slow-growing strains, such as Micrococcus and Streptococcus) dilutions of up to 32 different microorganisms, using a Steers replicator block. The inoculated plates were incubated at 35°-37° C. for 20 to 24 hours. In addition, a control plate, using BHI agar containing no test compound, was prepared and incubated at the beginning and end of each test.
(§2) An additional plate containing a compound having known susceptibility patterns for the organisms being tested and belonging to the same antibiotic class as the test compound was also prepared and incubated as a further control, as well as to provide test-to-test comparability. Erythromycin A was used for this purpose.
(§3) After incubation, each disk was read. The minimum inhibitory concentration (MIC) was defined as the lowest concentration of drug yielding no growth, a slight haze, or sparsely isolated colonies on the inoculum spot as compared to the growth control.

STR[…] EES61 = assay: In vitro antibacterial activity, agar dilution MIC; conditions: Streptococcus pyogenes, 24 h
Experimental: as §1, §2, §3

STAPHYLOCOCCUS AUREUS 45 = assay: In vitro antibacterial activity, agar dilution MIC; conditions: 24 h
[10] = test system: STAPHYLOCOCCUS AUREUS CMX 553; assay: In vitro antibacterial activity, agar dilution MIC; conditions: 24 h
[11] = test system: STREPTOCOCCUS PYOGENES 2548 INDUC; assay: In vitro antibacterial activity, agar dilution MIC
ESCHERICHIA COLI H560 = assay: In vitro antibacterial activity, agar dilution MIC
PSEUDOMONAS CEPACIA 296I = assay: In vitro antibacterial activity, agar dilution MIC; conditions: Burkholderia cepacia
[12] = test system: STAPHYLOCOCCUS AUREUS 1775; assay: In vitro antibacterial activity, agar dilution MIC
ESCHERICHIA COLI KNK 437 = assay: microbe, parasite or virus in culture
ESCHERICHIA COLI DC-2 = assay: In vitro antibacterial activity, agar dilution MIC; conditions: E. coli DC-2, BHI agar, 35-37° C., 20 to 24 hours, read-out: MIC
[13] = test system: STAPHYLOCOCCUS AUREUS A5177; assay: In vitro antibacterial activity, agar dilution MIC; conditions: S. aureus A5177, BHI agar, 35-37° C., 20 to 24 hours, read-out: MIC
[14] = test system: STREPTOCOCCUS BOVIS A5169; assay: In vitro antibacterial activity, agar dilution MIC
[15] = test system: PROVIDENCIA STUARTII CMX 640; assay: microbe, parasite or virus in culture; conditions: P. stuartii CMX 640, BHI agar, 35-37° C., 20 to 24 hours
[16] = test system: PSEUDOMONAS AERUGINOSA BMH10; assay: In vitro antibacterial activity, agar dilution MIC; conditions: P. aeruginosa BMH10, BHI agar, 35-37° C., 20 to 24 hours, read-out: MIC
M[…] ATCC 4698 = assay: In vitro antibacterial activity, agar dilution MIC; conditions: Micrococcus luteus, ATCC4698, 24 h
Experimental: as §1, §2
as §3, with “control. The results of this assay, shown below in Tables 1 and 2, support the conclusion that the compounds of the invention are effective antibacterial agents.” for “control.”

M[…] ATCC 9341 = assay: In vitro antibacterial activity, agar dilution MIC; conditions: Micrococcus luteus, ATCC9341, 24 h
Experimental: as §1, §2
as §3, with “control. The results of this assay, shown below in Tables 1 and 2, support the conclusion that the compounds of the invention are effective antibacterial agents.” for “control.”

[17] = test system: PSEUDOMONAS AERUGINOSA K799/61; assay: In vitro antibacterial activity, agar dilution MIC
Experimental: as §1, §2
as §3, with “control. The results of this assay, shown below in Tables 1 and 2, support the conclusion that the compounds of the invention are effective antibacterial agents.” for “control.”

EN[…] ATCC 8043 = assay: In vitro antibacterial activity, agar dilution MIC; conditions: Enterococcus faecium, ATCC8043, 24 h
Experimental: as §1, §2
as §3, with “control. The results of this assay, shown below in Tables 1 and 2, support the conclusion that the compounds of the invention are effective antibacterial agents.” for “control.”

[18] = test system: STAPHYLOCOCCUS AUREUS NCTC 10649; assay: In vitro antibacterial activity, agar dilution MIC; conditions: NCTC10649, 24 h

Structure (SMILES): CC[C@H]1OC(=O)[C@H](C)[C@@H](O[C@H]2C[C@@](C)(OC)[C@@H](O)[C@H](C)O2)[C@H](C)[C@@H](O[C@@H]2O[C@H](C)C[C@H](N(C)C)[C@H]2O)[C@](C)(O)C[C@@H](C)[C@@H](N(C)C)[C@H](C)[C@@H](O)[C@@]1(O)CN(C)Cc1ccccc1 [Compound 16, (9R)-21-(N-benzyl-N-methylamino)-9-deoxo-9-(N,N-dimethylamino)-erythromycinA]
- MIC [1]: > 100 µg/mL
- MIC [2]: > 100 µg/mL
- MIC (ESCHERICHIA COLI SS; E. coli SS, BHI agar, 35-37° C., 20 to 24 hours, read-out: MIC): 100 µg/mL (≈ 113 µM)
- MIC (ESCHERICHIA COLI JUHL; 24 h): 12.5 µg/mL (≈ 14.2 µM)
- MIC ([3]; S. epidermidis 3519, BHI agar, 35-37° C., 20 to 24 hours, read-out: MIC): > 100 µg/mL
- MIC ([4]; 24 h): 0.78 µg/mL (≈ 0.884 µM)
- MIC [5]: 12.5 µg/mL (≈ 14.2 µM)
- MIC [6]: > 100 µg/mL
- MIC [7]: 3.1 µg/mL (≈ 3.51 µM)
- MIC [8]: 100 µg/mL (≈ 113 µM)
- MIC [9]: 100 µg/mL (≈ 113 µM)
- MIC (STR[…] 508): 0.1 µg/mL (≈ 0.113 µM)
- MIC (STR[…] EES61): 0.39 µg/mL (≈ 0.442 µM)
- MIC (STAPHYLOCOCCUS AUREUS 45): 6.2 µg/mL (≈ 7.03 µM)
- MIC [10]: 12.5 µg/mL (≈ 14.2 µM)
- MIC ([11]; S. pyogenes 2548 INDUC, BHI agar, 35-37° C., 20 to 24 hours, read-out: MIC): 50 µg/mL (≈ 56.7 µM)
- MIC (ESCHERICHIA COLI H560; E. coli H560, BHI agar, 35-37° C., 20 to 24 hours, read-out: MIC): 100 µg/mL (≈ 113 µM)
- MIC (PSEUDOMONAS CEPACIA 296I; 24 h): 12.5 µg/mL (≈ 14.2 µM)
- MIC ([12]; 24 h): 12.5 µg/mL (≈ 14.2 µM)
- MIC (ESCHERICHIA COLI KNK 437; 24 h): 50 µg/mL (≈ 56.7 µM)
- MIC (ESCHERICHIA COLI DC-2): 1.56 µg/mL (≈ 1.77 µM)
- MIC [13]: > 100 µg/mL
- MIC ([14]; S. bovis A5169, BHI agar, 35-37° C., 20 to 24 hours, read-out: MIC): 1.56 µg/mL (≈ 1.77 µM)
- MIC [15]: 100 µg/mL (≈ 113 µM)
- MIC [16]: > 100 µg/mL
- MIC (M[…] ATCC 4698): 0.39 µg/mL (≈ 0.442 µM)
- MIC (M[…] ATCC 9341): 6.2 µg/mL (≈ 7.03 µM)
- MIC ([17]; 24 h): > 100 µg/mL
- MIC (EN[…] ATCC 8043): 3.1 µg/mL (≈ 3.51 µM)
- MIC [18]: 12.5 µg/mL (≈ 14.2 µM)

Structure (SMILES): CC[C@H]1OC(=O)[C@H](C)[C@@H](O[C@H]2C[C@@](C)(OC)[C@@H](O)[C@H](C)O2)[C@H](C)[C@@H](O[C@@H]2O[C@H](C)C[C@H](N(C)C)[C@H]2O)[C@](C)(O)C[C@@H](C)[C@@H](N(C)C)[C@H](C)[C@@H](O)[C@H]1CO [Compound 11, (9R)-9-deoxo-9-(N,N-dimethylamino)-21-hydroxyerythromycin B]
- MIC [1]: > 100 µg/mL
- MIC [2]: > 100 µg/mL
- MIC (ESCHERICHIA COLI SS; 24 h): 0.39 µg/mL (≈ 0.511 µM)
- MIC (ESCHERICHIA COLI JUHL; E. coli JUHL, BHI agar, 35-37° C., 20 to 24 hours, read-out: MIC): > 100 µg/mL
- MIC ([3]; 24 h): 6.2 µg/mL (≈ 8.13 µM)
- MIC ([4]; S. pyogenes 930 CONST, BHI agar, 35-37° C., 20 to 24 hours, read-out: MIC): > 100 µg/mL
- MIC [5]: 6.2 µg/mL (≈ 8.13 µM)
- MIC [6]: > 100 µg/mL
- MIC [7]: 6.2 µg/mL (≈ 8.13 µM)
- MIC [8]: > 100 µg/mL
- MIC [9]: > 100 µg/mL
- MIC (STR[…] 508): 0.78 µg/mL (≈ 1.02 µM)
- MIC (STR[…] EES61): 0.39 µg/mL (≈ 0.511 µM)
- MIC (STAPHYLOCOCCUS AUREUS 45): 6.2 µg/mL (≈ 8.13 µM)
- MIC [10]: 6.2 µg/mL (≈ 8.13 µM)
- MIC ([11]; 24 h): 50 µg/mL (≈ 65.5 µM)
- MIC (ESCHERICHIA COLI H560; 24 h): 50 µg/mL (≈ 65.5 µM)
- MIC (PSEUDOMONAS CEPACIA 296I; P. cepacia 296I, BHI agar, 35-37° C., 20 to 24 hours, read-out: MIC): > 100 µg/mL
- MIC ([12]; S. aureus 1775, BHI agar, 35-37° C., 20 to 24 hours, read-out: MIC): > 100 µg/mL
- MIC (ESCHERICHIA COLI KNK 437; E. coli KNK 437, BHI agar, 35-37° C., 20 to 24 hours): > 100 µg/mL
- MIC (ESCHERICHIA COLI DC-2): > 100 µg/mL
- MIC [13]: 100 µg/mL (≈ 131 µM)
- MIC ([14]; 24 h): 0.78 µg/mL (≈ 1.02 µM)
- MIC [15]: > 100 µg/mL
- MIC [16]: > 100 µg/mL
- MIC (M[…] ATCC 4698): 0.78 µg/mL (≈ 1.02 µM)
- MIC (M[…] ATCC 9341): 0.78 µg/mL (≈ 1.02 µM)
- MIC ([17]; P. aeruginosa K799/61, BHI agar, 35-37° C., 20 to 24 hours, read-out: MIC): 12.5 µg/mL (≈ 16.4 µM)
- MIC (EN[…] ATCC 8043): 1.56 µg/mL (≈ 2.04 µM)
- MIC [18]: 6.2 µg/mL (≈ 8.13 µM)
